Measurements: ChEMBL document CHEMBL5331054, “Antibacterial quaternary ammonium agents: Chemical diversity and biological mechanism” (Eur J Med Chem, 2022)
Blank lines part the entries; values can stand above or below the compound they belong to.

How the values were obtained:
[1] = system: Pseudomonas aeruginosa; assay: Antibacterial activity against Pseudomonas aeruginosa ATCC 27853 assessed as inhibition of bacterial growth incubated for 16 hrs by CLSI based broth microdilution method; format: functional
[2] = system: Enterococcus faecalis; assay: Antibacterial activity against Enterococcus faecalis ATCC 29212 assessed as inhibition of bacterial growth incubated for 16 hrs by CLSI based broth microdilution method; format: functional
[3] = system: Escherichia coli; assay: Antibacterial activity against Escherichia coli ATCC 11229 assessed as reduction in bacterial cell growth incubated for 24 hrs by microtiter plate reader assay; format: functional
[4] = system: Enterococcus faecalis; assay: Antibacterial activity against vancomycin-resistant Enterococcus faecalis assessed as inhibition of bacterial growth incubated for 16 hrs by CLSI based broth microdilution method; format: functional
[5] = system: Staphylococcus aureus; assay: Antibacterial activity against Staphylococcus aureus ATCC 29213 assessed as inhibition of bacterial growth incubated for 16 hrs by CLSI based broth microdilution method; format: functional
[6] = system: Staphylococcus aureus; assay: Antibacterial activity against methicillin resistant Staphylococcus aureus assessed as reduction in bacterial cell growth incubated for 18 to 24 hrs by microbroth dilution assay; format: functional; details: time 18-24 hrs
[7] = system: Staphylococcus aureus; assay: Antibacterial activity against Staphylococcus aureus ATCC 700699 assessed as reduction in bacterial cell growth incubated for 24 hrs by microtiter plate reader assay; format: functional
[8] = system: Pseudomonas aeruginosa; assay: Antibacterial activity against Pseudomonas aeruginosa ATCC 10145 by broth microdilution method; format: functional
[9] = system: Staphylococcus aureus; assay: Antibacterial activity against methicillin-resistant Staphylococcus aureus assessed as bacterial cell growth inhibition incubated for 18 hrs by microbroth dilution method; format: functional
[10] = system: Staphylococcus aureus; assay: Antibacterial activity against Staphylococcus aureus assessed as bacterial growth inhibition incubated for 72 hrs by microdilution assay; format: functional, organism-based; details: Staphylococcus aureus; time 72 hrs
[11] = system: Escherichia coli; assay: Antimicrobial activity against Escherichia coli at 50 uM; format: functional
[12] = system: Enterococcus faecalis; assay: Antimicrobial activity against Enterococcus faecalis; format: functional
[13] = system: Staphylococcus aureus; assay: Antimicrobial activity against community acquired methicillin-resistant Staphylococcus aureus assessed as reduction in bacterial cell growth; format: functional
[14] = system: Staphylococcus aureus; assay: Antibacterial activity against methicillin-resistant Staphylococcus aureus assessed as bacterial growth inhibition; format: functional
[15] = system: Salmonella enterica; assay: Antibacterial activity against Salmonella enterica ATCC 14028 assessed as reduction in bacterial cell growth incubated for 24 hrs by microtiter plate reader assay; format: functional
[16] = system: Bacillus subtilis; assay: Antibacterial activity against Bacillus subtilis ATCC 6633 assessed as reduction in bacterial cell growth incubated for 24 hrs by microtiter plate reader assay; format: functional
[17] = system: Staphylococcus aureus; assay: Antibacterial activity against methicillin-resistant Staphylococcus aureus […] assessed as reduction in bacterial cell growth; format: functional
[18] = system: Escherichia coli; assay: Antibacterial activity against Escherichia coli assessed as reduction in bacterial cell growth; format: functional
[19] = system: Klebsiella pneumoniae; assay: Antibacterial activity against Klebsiella pneumoniae ATCC 700603 assessed as inhibition of bacterial cell growth
[20] = system: Pseudomonas aeruginosa; assay: Antibacterial activity against Pseudomonas aeruginosa assessed as bacterial growth inhibition incubated for 72 hrs by microdilution method; format: functional; details: Pseudomonas aeruginosa, 72 h, read-out: MIC
[21] = system: Enterococcus faecalis; assay: Antibacterial activity against Enterococcus faecalis assessed as bacterial growth inhibition incubated for 72 hrs by microdilution method; format: functional
[22] = system: Escherichia coli; assay: Antibacterial activity against Escherichia coli assessed as bacterial growth inhibition incubated for 72 hrs by microdilution method; format: functional; details: Escherichia coli, 72 h, read-out: MIC
[23] = system: Staphylococcus aureus; assay: Antibiofilm activity against Staphylococcus aureus ATCC 33591 assessed as reduction in biofilm activity; format: functional
[24] = system: Staphylococcus aureus; assay: Antibacterial activity against Staphylococcus aureus; format: functional
[25] = system: Escherichia coli; assay: Antibacterial activity against Escherichia coli ATCC 25922 assessed as inhibition of bacterial growth incubated for 16 to 18 hrs by broth microdilution method; format: functional; details: time 16-18 hrs
[26] = system: Pseudomonas aeruginosa; assay: Antibacterial activity against Pseudomonas aeruginosa ATCC 27853 assessed as inhibition of bacterial growth incubated for 16 to 18 hrs by broth microdilution method; format: functional; details: time 16-18 hrs
[27] = system: Staphylococcus aureus; assay: Antibacterial activity against methicillin-resistant Staphylococcus aureus assessed as bacterial growth inhibition measured after 16 to 18 hrs by broth microdilution method; format: functional; details: time 16-18 hrs
[28] = system: Enterococcus faecalis; assay: Antibacterial activity against Enterococcus faecalis ATCC 29212 assessed as inhibition of bacterial growth incubated for 16 to 18 hrs by broth microdilution method; format: functional; details: time 16-18 hrs
[29] = system: Pseudomonas aeruginosa; assay: Antibacterial activity against Pseudomonas aeruginosa assessed as reduction in bacterial cell growth; format: functional
[30] = system: Staphylococcus aureus; assay: Antibacterial activity against methicillin-sensitive Staphylococcus aureus assessed as reduction in microbial growth; format: functional

Structure (SMILES): CC(C)(C)n1cc[n+](CCCCCCCCCCCC[n+]2ccn(C(C)(C)C)c2)c1.[Br-].[Br-]
MIC [1]: 4 µg/mL
MIC [2]: 0.5 µg/mL
MIC [3]: 0.5 µg/mL
MIC [4]: 0.5 µg/mL
MIC [5]: 0.25 µg/mL
MIC [6]: 0.5 µg/mL

MIC [7]: 0.5 µg/mL
Structure (SMILES): CCCCCCCCCCCCCCCCCC[N+](C)(C)Cc1cnc(C)c(O)c1C.Cl.[Cl-]

Structure (SMILES): CCCCCCCC[n+]1ccc(SCCCCCCSc2cc[n+](CCCCCCCC)cc2)cc1.[Br-].[Br-]
MIC [8]: 8 µg/mL
MIC [9]: 8 µg/mL

Structure (SMILES): CCCCCCCCCCC[n+]1ccc(CCCc2cc[n+](CCCCCCCCCCC)cc2)cc1
MIC [10]: 0.25 µM
MIC [11]: 0.5 µM
MIC [12]: 0.5 µM
MIC [13]: 0.25 µM
MIC [14]: 0.25 µM

MIC [15]: 1.6 µg/mL
MIC [3]: 0.8 µg/mL
MIC [16]: 0.8 µg/mL
Structure (SMILES): CCCCCCCCCCCCCCCCCCNC(=O)CC[C@@H](C)[C@H]1CC[C@H]2[C@@H]3[C@H](OC(=O)C[n+]4ccccc4)C[C@@H]4C[C@H](OC(=O)C[n+]5ccccc5)CC[C@]4(C)[C@H]3C[C@H](O)[C@]12C.[Cl-].[Cl-]

Structure (SMILES): CCCCCCCCCCCC[n+]1cccc(C[N+](C)(C)CCCCCCCCCCCC)c1
MIC [17]: 1 µM

Structure (SMILES): CCCCCCCCC[n+]1cccc(Oc2ccc(-c3ccc(Oc4ccc[n+](CCCCCCCCC)c4)cc3)cc2)c1.[I-].[I-]
MIC [18]: 0.5 µg/mL
MIC [19]: 8 µg/mL
MIC [14]: < 0.25 µg/mL

MIC [10]: 1 µM
MIC [20]: 4 µM
MIC [21]: < 0.25 µM
MIC [22]: < 0.25 µM
Structure (SMILES): CCCCCCCCCCCCC[N+](C)(C)CCCN(C)CCC[N+](C)(C)CCCCCCCCCCCC.[Br-].[Br-]
MBEC [23]: 50 µM

Structure (SMILES): CCCCCCCCCCCC[N+]12CC[N+](CCCCCCCCCCCC)(CC1)CC2
MIC [24]: 0.25 µM
MIC [25]: 2 µM
MIC [26]: 8 µM
MIC [27]: 0.5 µM
MIC [28]: 4 µM

MIC [29]: 4 µM
MIC [30]: 1 µM
Structure (SMILES): CCCCCCCCCCC[n+]1ccc(CCc2cc[n+](CCCCCCCCCCC)cc2)cc1
